# Test results reported in US4963655A, “Boron analogs of amino acid/peptide protease inhibitors” (Mayo Foundation for Medical Education and Research, priority 1988, dated 1990).
# Assays:
# [1] = system: Human melanoma cells (A375); test: Growth Inhibition Assay; assay type: cell-based; conditions: for % Inhib (growth): 96 h exposure, fresh inhibitor every 24 h; for growth inhibitory activity (in words): other serine protease inhibitors, Table 2; for Growth Inhibition (%) 24 hr: counted after 24 hr growth; for Growth Inhibition (%) 48 hr: counted after 48 hr growth; for Growth Inhibition (%) 96 hr: counted after 96 hr growth
# Description: Human melanoma cells (A375) were seeded at 2 ×10^4 cells per tissue culture dish (60×15 mm, Falcon) in Delbecco's Minimal Essential Media (DMEM) containing 10% fetal calf serum and including 1% antibiotics. Cells were allowed to attach for 48 hours prior to exposure to drugs. Cbz-ala-1-borovaline and Cbz-ala-1-borophenylalanine were dissolved in dimethyl sulfoxide (DMSO). The final DMSO concentration in media was 0.5%. Fresh media was exchanged for the media including the drug at appropriate exposure times. Cells were counted after 24, 48 or 96 hours of growth using a Coulter counter. Growth inhibition is expressed as the percent reduction of drug treated cells with respect to untreated control cells.
# [2] = system: Human melanoma cells (A375); test: Colony Formation Assay (CFA); assay type: cell-based
# Description: Human melanoma cells (A375) were seeded at 500 cells per tissue culture dish and allowed to recover for 48 hours. The drug and media mixture was prepared as described above. Following drug exposure, fresh media were substituted for the drug and media mixture. After 7 days, colonies were stained with 0.25% Coomassie Blue and enumerated. Data are expressed as the percent of colonies present in treated plates with respect to control plates (percent survival).
# [3] = system: L1210 murine leukemia cells; test: Growth inhibition of L1210 cells in culture; assay type: cell-based; conditions: 72-hour exposure, 0.03 uM
# Description: Following a 72-hour exposure to 0.03 uM ala-1-borovaline, approximately 50% growth inhibition was observed. The two compounds are also cytotoxic to human tumor cell lines. While not yet fully understood, the mechanism of cytotoxicity is not via macromolecular synthesis inhibition in the human tumor cell lines.
# [4] = system: human lung carcinoma (A549) cells; test: Growth and colony formation of A549 cells in culture; assay type: cell-based
# Description: Qualitatively similar results were obtained against human lung carcinoma (A549) cells in culture (data not shown). […] The plateau, however, was not observed in association with the analog after the 1-hour (FIG. 3A) or continuous (FIG. 3C) exposure times. A similar plateau was never observed with Cbz-ala-1-borophenylalanine treatment. A plateau was also seen with A549 cells. A growth inhibition assay (Table 1) yielded qualitatively similar results as the colony formation assay.
# [5] = system: Lewis lung murine tumor cells; conditions: Lewis lung murine tumor cells in culture; Goz et al.; cited from earlier work
# A375 cells = test: Macromolecular synthesis: protein synthesis ([3H]-leucine incorporation); assay type: cell-based, human; conditions: 0.075 ug/ml
# Description: Protein synthesis was determined by the incorporation of [^3 H]-leucine into protein in viable cells.
# Human melanoma (A375) cells were seeded at 1 ×10^5 cells per tissue culture dish 48 hours prior to the addition of the drug (for example, Cbz-ala-1borovaline or Cbz-ala-1-borophenylalanine). The drug and media mixture was prepared as described above. During the last 30 minutes of drug exposure radioactive labeled precursors were added to the media and drug mixture. Specifically, either ^3 H-thymidine (0.2 uCi/ml, to measure DNA synthesis), ^3 H-uridine (0.2 uCi/ml, to measure RNA synthesis, or ^3 H-leucine (1 uCi/ml, to measure protein synthesis) were added. Following 30 minutes at 37° C., the cells were harvested, resuspended in physiological buffered saline (PBS) and the cells counted. An aliquot of the cell suspension was then lysed (10 mM Tris, 1 mM EDTA, 0.1% SDS) and macromolecules were precipitated with ice-cold trichloroacetic acid (TCA) (20%). Following three washes with TCA, radioactivity in the resulting pellet was counted on a Beckman LS2000 Scintillation Counter. Data is expressed as the percentage of counts incorporated into 1×10^6 treated cells as compared to 1×10^6 untreated cells (percent incorporation).
molecule,measurement,setting,value
"N-tosylphenylalanine chloromethyl ketone [TPCK, reference compound]",% Inhib (growth),[1]; 2.84 uM,42%
same,% Inhib (growth),[1]; 28.4 uM,100%
same,% Inhib (growth),[1]; 142 uM,100%
same,% Inhib (growth),[1]; 284 uM,100%
same,% Inhib (growth),[1]; .028 uM,5%
same,% Inhib (growth),[1]; .284 uM,9%
same,growth inhibitory activity (in words),[1],inhibited growth at very high concentrations
"CC(NC(=O)OCc1ccccc1)C(=O)NC(B(O)O)C(C)C (centres unmarked) [Cbz-ala-1-Borovaline, Cbz-ala-1-borovaline]","inhibition of colony formation, comparison of potency (in words)",[2]; FIG. 3,more potent inhibitor of colony formation than was Cbz-ala-1-borophenylalanine
same,Colony Formation Inhibition (%),"[2]; exposure 1 h, 7.36 uM",41%
same,Colony Formation Inhibition (%),"[2]; exposure 1 h, 29.43 uM",87%
same,Colony Formation Inhibition (%),"[2]; exposure 24 h, 1.47 uM",87%
same,Colony Formation Inhibition (%),"[2]; exposure 24 h, .003 uM",5%
same,Colony Formation Inhibition (%),"[2]; exposure 24 h, .029 uM",43%
same,Growth Inhibition (%) 24 hr,"[1]; exposure 1 h, 7.36 uM",14%
same,Growth Inhibition (%) 48 hr,"[1]; exposure 1 h, 7.36 uM",33%
same,Growth Inhibition (%) 96 hr,"[1]; exposure 1 h, 7.36 uM",46%
same,Growth Inhibition (%) 24 hr,"[1]; exposure 1 h, 29.43 uM",23%
same,Growth Inhibition (%) 48 hr,"[1]; exposure 1 h, 29.43 uM",48%
same,Growth Inhibition (%) 96 hr,"[1]; exposure 1 h, 29.43 uM",73%
same,Growth Inhibition (%) 24 hr,"[1]; exposure 24 h, 1.47 uM",61%
same,Growth Inhibition (%) 48 hr,"[1]; exposure 24 h, 1.47 uM",88%
same,Growth Inhibition (%) 96 hr,"[1]; exposure 24 h, 1.47 uM",93%
same,Growth Inhibition (%) 24 hr,"[1]; exposure 24 h, .003 uM",5%
same,Growth Inhibition (%) 48 hr,"[1]; exposure 24 h, .003 uM",5%
same,Growth Inhibition (%) 96 hr,"[1]; exposure 24 h, .003 uM",14%
same,Growth Inhibition (%) 24 hr,"[1]; exposure 24 h, .029 uM",17%
same,Growth Inhibition (%) 48 hr,"[1]; exposure 24 h, .029 uM",50%
same,Growth Inhibition (%) 96 hr,"[1]; exposure 24 h, .029 uM",68%
same,Growth Inhibition (%) 24 hr,"[1]; exposure 96 h, .029 uM",21%
same,Growth Inhibition (%) 48 hr,"[1]; exposure 96 h, .029 uM",51%
same,Growth Inhibition (%) 96 hr,"[1]; exposure 96 h, .029 uM",68%
same,Growth Inhibition (%) 24 hr,"[1]; exposure 96 h, .736 uM",53%
same,Growth Inhibition (%) 48 hr,"[1]; exposure 96 h, .736 uM",78%
same,Growth Inhibition (%) 96 hr,"[1]; exposure 96 h, .736 uM",89%
same,growth inhibition,[3],approximately 50%
same,inhibition of growth and colony formation (in words),[4],effective inhibitors
Aprotinin [reference compound],% Inhib (growth),[1]; 1.54 uM,0%
same,% Inhib (growth),[1]; 15.4 uM,0%
same,% Inhib (growth),[1]; .015 uM,0%
same,% Inhib (growth),[1]; .154 uM,0%
same,growth inhibitory activity (in words),[1],Negligible growth inhibition
"CC(NC(=O)OCc1ccccc1)C(=O)NC(Cc1ccccc1)B(O)O (centres unmarked) [Cbz-ala-1-Borophenylalanine, Cbz-ala-1-borophenylalanine]",cytotoxicity (in words),[5],modest activity
same,Colony Formation Inhibition (%),"[2]; exposure 1 h, 51.6 uM",55%
same,Colony Formation Inhibition (%),"[2]; exposure 24 h, .026 uM",10%
same,Colony Formation Inhibition (%),"[2]; exposure 24 h, .129 uM",35%
same,Colony Formation Inhibition (%),"[2]; exposure 24 h, .645 uM",97%
same,growth inhibition,"[1]; 0.075 ug/ml, 24-hour exposure",70%
same,Growth Inhibition (%) 24 hr,"[1]; exposure 1 h, 51.6 uM",20%
same,Growth Inhibition (%) 48 hr,"[1]; exposure 1 h, 51.6 uM",41%
same,Growth Inhibition (%) 96 hr,"[1]; exposure 1 h, 51.6 uM",52%
same,Growth Inhibition (%) 24 hr,"[1]; exposure 1 h, 129 uM",42%
same,Growth Inhibition (%) 48 hr,"[1]; exposure 1 h, 129 uM",65%
same,Growth Inhibition (%) 96 hr,"[1]; exposure 1 h, 129 uM",69%
same,Growth Inhibition (%) 24 hr,"[1]; exposure 24 h, .026 uM",5%
same,Growth Inhibition (%) 48 hr,"[1]; exposure 24 h, .026 uM",3%
same,Growth Inhibition (%) 96 hr,"[1]; exposure 24 h, .026 uM",15%
same,Growth Inhibition (%) 24 hr,"[1]; exposure 24 h, .129 uM",41%
same,Growth Inhibition (%) 48 hr,"[1]; exposure 24 h, .129 uM",63%
same,Growth Inhibition (%) 96 hr,"[1]; exposure 24 h, .129 uM",68%
same,Growth Inhibition (%) 24 hr,"[1]; exposure 24 h, .645 uM",75%
same,Growth Inhibition (%) 48 hr,"[1]; exposure 24 h, .645 uM",72%
same,Growth Inhibition (%) 96 hr,"[1]; exposure 24 h, .645 uM",98%
same,Growth Inhibition (%) 24 hr,"[1]; exposure 96 h, .1239 uM",38%
same,Growth Inhibition (%) 48 hr,"[1]; exposure 96 h, .1239 uM",68%
same,Growth Inhibition (%) 96 hr,"[1]; exposure 96 h, .1239 uM",75%
same,Growth Inhibition (%) 24 hr,"[1]; exposure 96 h, .258 uM",58%
same,Growth Inhibition (%) 48 hr,"[1]; exposure 96 h, .258 uM",91%
same,Growth Inhibition (%) 96 hr,"[1]; exposure 96 h, .258 uM",95%
same,inhibition of protein synthesis,A375 cells,did not show an acute inhibition of protein synthesis
same,inhibition of growth and colony formation (in words),[4],effective inhibitors
"Ovomucoid: serine protease inhibitor (protein, UniProt P01005 25-210, looked up) Ovomucoid: AEVDCSRFPNATDKEGKDVLVCNKDLRPICGTDGVTYTNDCLLCAYSIEFGTNISKEHDGECKETVPMNCSSYANTTSEDGKVMVLCNRAFNPVCGTDGVTYDNECLLCAHKVEQGASVDKRHDGGCRKELAAVSVDCSEYPKPDCTAEDRPLCGSDNKTYGNKCNFCNAVVESNGTLTLSHFGKC",% Inhib (growth),[1]; 3.57 uM,0%
same,% Inhib (growth),[1]; 17.9 uM,0%
same,% Inhib (growth),[1]; 89.3 uM,5%
same,% Inhib (growth),[1]; .004 uM,0%
same,% Inhib (growth),[1]; .036 uM,0%
same,% Inhib (growth),[1]; .357 uM,1%
same,growth inhibitory activity (in words),[1],Negligible growth inhibition
